According to patent publication US9701670B2, “Pyrazolyl-ureas as kinase inhibitors” (RESPIVERT LIMITED, priority 2013, dated 2017):

Tests used:
[1] = target: p38 MAPKα isoform (MAPK14) (Homo sapiens (Human), UniProt Q16539); test: p38 MAPKα enzyme inhibition (FRET, Z-LYTE), Method 1; type: biochemical; details: Method 1 (Table 4a1)
Protocol: The enzyme inhibitory activities of compounds disclosed herein are determined by FRET using synthetic peptides labelled with both donor and acceptor fluorophores (Z-LYTE, Invitrogen Ltd., Paisley, UK).
The inhibitory activities of test compounds against the p38 MAPKα isoform (MAPK14: Invitrogen), are evaluated indirectly by determining the level of activation/phosphorylation of the down-stream molecule, MAPKAP-K2. The p38 MAPKα protein (80 ng/mL, 2.5 μL) is mixed with the test compound (2.5 μL of either 4 μg/mL, 0.4 μg/mL, 0.04 μg/mL or 0.004 μg/mL) for 2 hr at RT. […] The mixture is incubated for 1 hr at RT. Development reagent (protease, 5 μL) is added for 1 hr prior to detection in a fluorescence microplate reader (Varioskan® Flash, ThermoFisher Scientific).
In all cases, the site-specific protease cleaves non-phosphorylated peptide only and eliminates the FRET signal. Phosphorylation levels of each reaction are calculated using the ratio of coumarin emission (donor) over fluorescein emission (acceptor), for which high ratios indicate high phosphorylation and low ratios indicate low phosphorylation levels.

[2] = tested on: Differentiated U937 cells; test: (l) Cell viability: MTT assay; type: cell-based, human; details: 1 μg/mL
Protocol: Differentiated U937 cells are pre-incubated with each test compound (final concentration 1 μg/mL or 10 μg/mL in 200 μL media indicated below) under two protocols: the first for 4 hr in 5% FCS RPMI1640 media and the second in 10% FCS RPMI1640 media for 24 h. The supernatant is replaced with new media (200 μL) and MTT stock solution (10 μL, 5 mg/mL) is added to each well. After incubation for 1 hr the media are removed, DMSO (200 μL) is added to each well and the plates are shaken lightly for 1 hr prior to reading the absorbance at 550 nm. The percentage loss of cell viability is calculated for each well relative to vehicle (0.5% DMSO) treatment. Consequently an apparent increase in cell viability for drug treatment relative to vehicle is tabulated as a negative percentage.

p38 MAPKα isoform (MAPK14), sequence (Q16539 whole entry, canonical isoform): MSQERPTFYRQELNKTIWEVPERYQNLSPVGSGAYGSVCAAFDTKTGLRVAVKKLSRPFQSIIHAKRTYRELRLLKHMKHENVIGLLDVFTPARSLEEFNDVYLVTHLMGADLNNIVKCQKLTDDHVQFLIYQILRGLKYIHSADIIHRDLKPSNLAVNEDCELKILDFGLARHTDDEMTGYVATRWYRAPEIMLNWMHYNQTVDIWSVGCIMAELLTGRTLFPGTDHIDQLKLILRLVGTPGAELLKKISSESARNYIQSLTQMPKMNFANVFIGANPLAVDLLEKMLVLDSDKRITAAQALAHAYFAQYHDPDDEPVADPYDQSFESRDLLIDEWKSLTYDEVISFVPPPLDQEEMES

IC50 [1] | Compound | Cell viability at time point in d-U937 cells 4 h [2] | Cell viability at time point in d-U937 cells 24 h [2]
1 nM | COc1cc(Nc2nccc(Oc3ccc(NC(=O)Nc4cc(C(C)C)nn4-c4ccc(C)cc4)c4ccccc34)n2)cc(C(=O)NCCN(C)C)c1 [Example 5, N-(2-(Dimethylamino)ethyl)-3-((4-((4-(3-(3-isopropyl-1-(p-tolyl)-1H-pyrazol-5-yl)ureido)naphthalen-1-yl)oxy)pyrimidin-2-yl)amino)-5-methoxybenzamide] | −ve (−ve and +ve indicate that the value is below and above respectively, the no significant effect threshold, defined as 30% inhibition at 1 μg/mL at the time point indicated.) | −ve (−ve and +ve indicate that the value is below and above respectively, the no significant effect threshold, defined as 30% inhibition at 1 μg/mL at the time point indicated.)
6 nM | COc1cc(Nc2nccc(Oc3ccc(NC(=O)Nc4cc(C(C)C)nn4-c4ccc(OC)nc4)c4ccccc34)n2)cc(C(=O)NCCN2CCOCC2)c1 [Example 10, 3-((4-((4-(3-(3-Isopropyl-1-(6-methoxypyridin-3-yl)-1H-pyrazol-5-yl)ureido)naphthalen-1-yl)oxy)pyrimidin-2-yl)amino)-5-methoxy-N-(2-morpholinoethyl)benzamide] | −ve (−ve and +ve indicate that the value is below and above respectively, the no significant effect threshold, defined as 30% inhibition at 1 μg/mL at the time point indicated.) | −ve (−ve and +ve indicate that the value is below and above respectively, the no significant effect threshold, defined as 30% inhibition at 1 μg/mL at the time point indicated.)
6 nM | COc1cc(Nc2nccc(Oc3ccc(NC(=O)Nc4cc(C(C)C)nn4-c4ccc(C)cc4)c4ccccc34)n2)cc(C(=O)N2CCOCC2)c1 [Example 12, 1-(3-Isopropyl-1-(p-tolyl)-1H-pyrazol-5-yl)-3-(4-((2-((3-methoxy-5-(morpholine-4-carbonyl)phenyl)amino)pyrimidin-4-yl)oxy)naphthalen-1-yl)urea] | −ve (−ve and +ve indicate that the value is below and above respectively, the no significant effect threshold, defined as 30% inhibition at 1 μg/mL at the time point indicated.) | −ve (−ve and +ve indicate that the value is below and above respectively, the no significant effect threshold, defined as 30% inhibition at 1 μg/mL at the time point indicated.)
7 nM | COc1ccc(-n2nc(C(C)C)cc2NC(=O)Nc2ccc(Oc3ccnc(Nc4cc(OC)cc(C(=O)NCCN5CCOCC5)c4)c3)c3ccccc23)cc1 [Example 15, 3-((4-((4-(3-(3-isopropyl-1-(4-methoxyphenyl)-1H-pyrazol-5-yl)ureido)naphthalen-1-yl)oxy)pyridin-2-yl)amino)-5-methoxy-N-(2-morpholinoethyl)benzamide] | −ve (−ve and +ve indicate that the value is below and above respectively, the no significant effect threshold, defined as 30% inhibition at 1 μg/mL at the time point indicated.) | −ve (−ve and +ve indicate that the value is below and above respectively, the no significant effect threshold, defined as 30% inhibition at 1 μg/mL at the time point indicated.)
5 nM | COc1ccc(-n2nc(C(C)C)cc2NC(=O)Nc2ccc(Oc3ccnc(Nc4cccc(C(=O)NCCN5CCOCC5)c4)n3)c3ccccc23)cc1 [Example 20, 3-((4-((4-(3-(3-isopropyl-1-(4-methoxyphenyl)-1H-pyrazol-5-yl)ureido)naphthalen-1-yl)oxy)pyrimidin-2-yl)amino)-N-(2-morpholinoethyl)benzamide] | −ve (−ve and +ve indicate that the value is below and above respectively, the no significant effect threshold, defined as 30% inhibition at 1 μg/mL at the time point indicated.) | −ve (−ve and +ve indicate that the value is below and above respectively, the no significant effect threshold, defined as 30% inhibition at 1 μg/mL at the time point indicated.)
10 nM | COc1ccc(-n2nc(C(C)(C)C)cc2NC(=O)Nc2ccc(Oc3ccnc(Nc4cccc(C(=O)NCCN5CCOCC5)c4)n3)c3ccccc23)cc1 [Example 21, 3-((4-((4-(3-(3-(tert-butyl)-1-(4-methoxyphenyl)-1H-pyrazol-5-yl)ureido)naphthalen-1-yl)oxy)pyrimidin-2-yl)amino)-N-(2-morpholinoethyl)benzamide] | −ve (−ve and +ve indicate that the value is below and above respectively, the no significant effect threshold, defined as 30% inhibition at 1 μg/mL at the time point indicated.) | −ve (−ve and +ve indicate that the value is below and above respectively, the no significant effect threshold, defined as 30% inhibition at 1 μg/mL at the time point indicated.)

The next lines start with the compound.

Compound | IC50 [1] | Cell viability at time point in d-U937 cells 4 h [2] | Cell viability at time point in d-U937 cells 24 h [2]
COc1cc(C(=O)NCCO)ccc1Nc1nccc(Oc2ccc(NC(=O)Nc3cc(C(C)(C)C)nn3-c3ccc(C)cc3)c3ccccc23)n1 [Example 4, 4-((4-((4-(3-(3-(tert-Butyl)-1-(p-tolyl)-1H-pyrazol-5-yl)ureido)naphthalen-1-yl)oxy)pyrimidin-2-yl)amino)-N-(2-hydroxyethyl)-3-methoxybenzamide] | 26 nM | −ve (−ve and +ve indicate that the value is below and above respectively, the no significant effect threshold, defined as 30% inhibition at 1 μg/mL at the time point indicated.) | −ve (−ve and +ve indicate that the value is below and above respectively, the no significant effect threshold, defined as 30% inhibition at 1 μg/mL at the time point indicated.)
COc1ccc(-n2nc(C(C)C)cc2NC(=O)Nc2ccc(Oc3cc(Nc4cc(OC)cc(C(=O)NCCN5CCOCC5)c4)ncn3)c3ccccc23)cc1 [Example 14, 3-((6-((4-(3-(3-isopropyl-1-(4-methoxyphenyl)-1H-pyrazol-5-yl)ureido)naphthalen-1-yl)oxy)pyrimidin-4-yl)amino)-5-methoxy-N-(2-morpholinoethyl)benzamide] | < 1 nM | −ve (−ve and +ve indicate that the value is below and above respectively, the no significant effect threshold, defined as 30% inhibition at 1 μg/mL at the time point indicated.) | +ve (−ve and +ve indicate that the value is below and above respectively, the no significant effect threshold, defined as 30% inhibition at 1 μg/mL at the time point indicated.)
CNC(=O)c1cccc(Nc2nccc(Oc3ccc(NC(=O)Nc4cc(C(C)(C)C)nn4-c4ccc(C)cc4)c4ccccc34)n2)c1 [Example 16, 3-((4-((4-(3-(3-(tert-butyl)-1-(p-tolyl)-1H-pyrazol-5-yl)ureido)naphthalen-1-yl)oxy)pyrimidin-2-yl)amino)-N-methylbenzamide] | 34 nM | −ve (−ve and +ve indicate that the value is below and above respectively, the no significant effect threshold, defined as 30% inhibition at 1 μg/mL at the time point indicated.) | −ve (−ve and +ve indicate that the value is below and above respectively, the no significant effect threshold, defined as 30% inhibition at 1 μg/mL at the time point indicated.)
CCCNC(=O)c1cccc(Nc2nccc(Oc3ccc(NC(=O)Nc4cc(C(C)(C)C)nn4-c4ccc(OC)cc4)c4ccccc34)n2)c1 [Example 17, 3-(4-(4-(3-(3-tert-butyl-1-(4-methoxyphenyl)-1H-pyrazol-5-yl)ureido)naphthalen-1-yloxy)pyrimidin-2-ylamino)-N-propylbenzamide] | 54 nM | −ve (−ve and +ve indicate that the value is below and above respectively, the no significant effect threshold, defined as 30% inhibition at 1 μg/mL at the time point indicated.) | −ve (−ve and +ve indicate that the value is below and above respectively, the no significant effect threshold, defined as 30% inhibition at 1 μg/mL at the time point indicated.)
Cc1ccc(-n2nc(C(C)(C)C)cc2NC(=O)Nc2ccc(Oc3ccnc(Nc4cccc(C(=O)NCCN(C)C)c4)n3)c3ccccc23)cc1 [Example 18, 3-((4-((4-(3-(3-(tert-butyl)-1-(p-tolyl)-1H-pyrazol-5-yl)ureido)naphthalen-1-yl)oxy)pyrimidin-2-yl)amino)-N-(2-(dimethylamino)ethyl)benzamide] | 12 nM | −ve (−ve and +ve indicate that the value is below and above respectively, the no significant effect threshold, defined as 30% inhibition at 1 μg/mL at the time point indicated.) | −ve (−ve and +ve indicate that the value is below and above respectively, the no significant effect threshold, defined as 30% inhibition at 1 μg/mL at the time point indicated.)
